From the kinase profiling compilation of Christmann-Franck et al. (2016)

What was measured:
Experiment in all cases: KINOMEscan competition binding
Conditions in all cases: compound 10.0 µM
[1] = system: BMX (human), P51813 [V600E]
[2] = system: EGFR (human), P00533 [A750P; 747-749 del]
[3] = system: EGFR (human), P00533 [G719C]
[4] = system: EGFR (human), P00533 [L858R]
[5] = system: FGFR3 (human), P22607 [G697C]
[6] = system: FLT3 (human), P36888 [D835Y]
[7] = system: KIT (human), P10721 [A829P]
Sequence of KIT (human), P10721 [A829P] (P10721 whole entry A829P, looked up): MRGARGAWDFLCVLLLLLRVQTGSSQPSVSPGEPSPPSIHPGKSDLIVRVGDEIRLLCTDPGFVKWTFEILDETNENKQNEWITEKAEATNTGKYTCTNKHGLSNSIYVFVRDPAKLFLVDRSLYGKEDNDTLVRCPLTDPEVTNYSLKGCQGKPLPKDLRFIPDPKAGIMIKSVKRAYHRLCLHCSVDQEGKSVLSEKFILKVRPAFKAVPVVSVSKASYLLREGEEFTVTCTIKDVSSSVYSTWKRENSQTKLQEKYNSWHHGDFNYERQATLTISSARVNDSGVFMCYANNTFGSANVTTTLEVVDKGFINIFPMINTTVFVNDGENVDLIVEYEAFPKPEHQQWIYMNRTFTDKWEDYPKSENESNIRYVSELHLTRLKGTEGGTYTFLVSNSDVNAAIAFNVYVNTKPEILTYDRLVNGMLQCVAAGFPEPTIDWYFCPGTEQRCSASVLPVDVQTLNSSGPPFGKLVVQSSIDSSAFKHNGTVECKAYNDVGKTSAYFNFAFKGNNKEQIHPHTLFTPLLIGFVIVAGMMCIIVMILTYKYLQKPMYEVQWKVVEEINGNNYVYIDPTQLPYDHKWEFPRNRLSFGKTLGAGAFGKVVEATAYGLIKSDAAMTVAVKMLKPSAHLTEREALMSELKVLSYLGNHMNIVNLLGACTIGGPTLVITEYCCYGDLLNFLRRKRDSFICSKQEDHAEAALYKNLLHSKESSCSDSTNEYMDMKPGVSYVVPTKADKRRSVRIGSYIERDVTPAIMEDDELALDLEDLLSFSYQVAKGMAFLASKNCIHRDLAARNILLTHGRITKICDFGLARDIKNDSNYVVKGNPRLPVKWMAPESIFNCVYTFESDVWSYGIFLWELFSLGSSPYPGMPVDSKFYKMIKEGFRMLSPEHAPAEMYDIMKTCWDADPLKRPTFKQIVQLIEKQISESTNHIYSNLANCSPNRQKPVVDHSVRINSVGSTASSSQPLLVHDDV

[8] = system: KIT (human), P10721 [D816H]
Sequence of KIT (human), P10721 [D816H] (P10721 whole entry D816H, looked up): as the sequence (P10721 whole entry A829P, looked up) above, with D816H, P829A counted along it

[9] = system: LRRK2 (human), Q5S007 [G2019S]
[10] = system: MET (human), P08581 [M1250T]
[11] = system: PIK3CA (human), P42336 [E542K]
Sequence of PIK3CA (human), P42336 [E542K] (P42336 whole entry E542K, looked up): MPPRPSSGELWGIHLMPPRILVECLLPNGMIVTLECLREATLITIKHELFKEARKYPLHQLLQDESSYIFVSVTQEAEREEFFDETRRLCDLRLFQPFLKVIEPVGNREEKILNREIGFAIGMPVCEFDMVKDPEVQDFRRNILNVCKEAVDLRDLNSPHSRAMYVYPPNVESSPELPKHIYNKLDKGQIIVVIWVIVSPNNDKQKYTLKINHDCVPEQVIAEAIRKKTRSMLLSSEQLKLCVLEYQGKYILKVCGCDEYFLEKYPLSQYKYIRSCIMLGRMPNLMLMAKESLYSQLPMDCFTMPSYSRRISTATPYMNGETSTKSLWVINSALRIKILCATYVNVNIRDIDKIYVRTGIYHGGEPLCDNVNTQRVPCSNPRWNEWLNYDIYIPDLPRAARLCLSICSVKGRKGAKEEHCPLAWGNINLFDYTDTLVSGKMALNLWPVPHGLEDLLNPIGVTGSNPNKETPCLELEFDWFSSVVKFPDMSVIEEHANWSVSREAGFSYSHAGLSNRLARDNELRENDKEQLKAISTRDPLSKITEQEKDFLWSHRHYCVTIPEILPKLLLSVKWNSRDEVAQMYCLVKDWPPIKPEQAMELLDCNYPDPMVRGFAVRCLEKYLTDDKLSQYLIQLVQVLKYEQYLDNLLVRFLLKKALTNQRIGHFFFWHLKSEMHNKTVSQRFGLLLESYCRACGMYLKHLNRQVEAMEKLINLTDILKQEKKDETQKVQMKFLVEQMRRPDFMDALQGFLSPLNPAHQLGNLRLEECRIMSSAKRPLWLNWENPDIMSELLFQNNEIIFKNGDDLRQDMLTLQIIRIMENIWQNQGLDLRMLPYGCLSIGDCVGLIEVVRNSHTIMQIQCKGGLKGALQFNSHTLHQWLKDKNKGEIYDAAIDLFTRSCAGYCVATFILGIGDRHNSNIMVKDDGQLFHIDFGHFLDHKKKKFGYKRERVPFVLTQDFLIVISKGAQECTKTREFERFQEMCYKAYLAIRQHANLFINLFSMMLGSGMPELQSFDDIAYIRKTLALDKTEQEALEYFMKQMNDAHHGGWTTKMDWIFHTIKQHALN

[12] = system: PIK3CA (human), P42336 [H1047L]
Sequence of PIK3CA (human), P42336 [H1047L] (P42336 whole entry H1047L, looked up): as the sequence (P42336 whole entry E542K, looked up) above, with K542E, H1047L counted along it

[13] = system: PIK3CA (human), P42336 [M1043I]
Sequence of PIK3CA (human), P42336 [M1043I] (P42336 whole entry M1043I, looked up): as the sequence (P42336 whole entry E542K, looked up) above, with K542E, M1043I counted along it

[14] = system: RET (human), P07949 [V804L]
Sequence of RET (human), P07949 [V804L] (P07949 whole entry V804L, looked up): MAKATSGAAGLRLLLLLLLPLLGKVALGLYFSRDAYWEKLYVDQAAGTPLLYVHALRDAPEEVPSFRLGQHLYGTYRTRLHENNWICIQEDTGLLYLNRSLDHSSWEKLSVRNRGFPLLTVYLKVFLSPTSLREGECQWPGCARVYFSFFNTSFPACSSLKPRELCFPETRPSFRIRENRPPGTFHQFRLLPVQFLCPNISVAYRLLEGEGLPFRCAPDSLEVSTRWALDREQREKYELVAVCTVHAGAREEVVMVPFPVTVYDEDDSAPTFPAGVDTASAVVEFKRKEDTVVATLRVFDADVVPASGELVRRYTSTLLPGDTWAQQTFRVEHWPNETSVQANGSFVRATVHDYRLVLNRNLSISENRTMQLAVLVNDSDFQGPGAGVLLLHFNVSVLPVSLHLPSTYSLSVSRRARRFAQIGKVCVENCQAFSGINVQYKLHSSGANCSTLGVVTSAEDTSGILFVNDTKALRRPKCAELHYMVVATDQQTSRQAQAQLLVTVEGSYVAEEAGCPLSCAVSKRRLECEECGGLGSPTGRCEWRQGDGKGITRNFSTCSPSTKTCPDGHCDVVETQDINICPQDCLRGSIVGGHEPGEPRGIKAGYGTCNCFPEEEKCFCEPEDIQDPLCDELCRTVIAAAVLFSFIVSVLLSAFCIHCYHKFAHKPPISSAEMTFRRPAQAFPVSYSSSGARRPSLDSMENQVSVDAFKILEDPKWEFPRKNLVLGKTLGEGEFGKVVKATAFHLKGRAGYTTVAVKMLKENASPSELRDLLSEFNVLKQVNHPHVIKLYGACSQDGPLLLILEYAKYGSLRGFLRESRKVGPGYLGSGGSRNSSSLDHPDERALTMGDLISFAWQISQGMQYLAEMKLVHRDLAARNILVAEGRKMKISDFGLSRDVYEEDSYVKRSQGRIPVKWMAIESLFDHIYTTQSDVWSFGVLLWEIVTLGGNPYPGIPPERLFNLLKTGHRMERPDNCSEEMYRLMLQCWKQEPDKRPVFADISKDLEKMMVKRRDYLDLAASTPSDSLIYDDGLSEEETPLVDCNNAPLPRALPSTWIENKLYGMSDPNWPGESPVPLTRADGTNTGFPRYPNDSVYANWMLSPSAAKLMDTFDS

Sequence of BMX (human), P51813 [V600E] (P51813 whole entry, looked up, stated change not applied): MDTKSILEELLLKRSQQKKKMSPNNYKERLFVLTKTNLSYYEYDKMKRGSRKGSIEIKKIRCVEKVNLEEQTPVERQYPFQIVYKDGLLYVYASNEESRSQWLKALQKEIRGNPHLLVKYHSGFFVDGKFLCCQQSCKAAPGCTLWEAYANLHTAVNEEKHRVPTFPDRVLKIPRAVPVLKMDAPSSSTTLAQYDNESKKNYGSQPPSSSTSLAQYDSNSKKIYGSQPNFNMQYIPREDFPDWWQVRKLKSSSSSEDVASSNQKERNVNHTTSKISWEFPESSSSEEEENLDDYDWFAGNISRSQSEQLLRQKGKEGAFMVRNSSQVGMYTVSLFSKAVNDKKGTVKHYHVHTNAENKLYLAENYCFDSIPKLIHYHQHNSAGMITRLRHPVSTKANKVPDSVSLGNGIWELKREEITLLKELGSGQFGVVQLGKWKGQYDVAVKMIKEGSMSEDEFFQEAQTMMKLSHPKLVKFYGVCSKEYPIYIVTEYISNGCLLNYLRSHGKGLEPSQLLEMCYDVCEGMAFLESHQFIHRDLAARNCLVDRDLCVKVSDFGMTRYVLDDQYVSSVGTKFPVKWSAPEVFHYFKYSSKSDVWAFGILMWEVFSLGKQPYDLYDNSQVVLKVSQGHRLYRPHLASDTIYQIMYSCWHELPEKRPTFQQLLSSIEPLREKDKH
Sequence of FGFR3 (human), P22607 [G697C] (P22607 whole entry G697C, looked up): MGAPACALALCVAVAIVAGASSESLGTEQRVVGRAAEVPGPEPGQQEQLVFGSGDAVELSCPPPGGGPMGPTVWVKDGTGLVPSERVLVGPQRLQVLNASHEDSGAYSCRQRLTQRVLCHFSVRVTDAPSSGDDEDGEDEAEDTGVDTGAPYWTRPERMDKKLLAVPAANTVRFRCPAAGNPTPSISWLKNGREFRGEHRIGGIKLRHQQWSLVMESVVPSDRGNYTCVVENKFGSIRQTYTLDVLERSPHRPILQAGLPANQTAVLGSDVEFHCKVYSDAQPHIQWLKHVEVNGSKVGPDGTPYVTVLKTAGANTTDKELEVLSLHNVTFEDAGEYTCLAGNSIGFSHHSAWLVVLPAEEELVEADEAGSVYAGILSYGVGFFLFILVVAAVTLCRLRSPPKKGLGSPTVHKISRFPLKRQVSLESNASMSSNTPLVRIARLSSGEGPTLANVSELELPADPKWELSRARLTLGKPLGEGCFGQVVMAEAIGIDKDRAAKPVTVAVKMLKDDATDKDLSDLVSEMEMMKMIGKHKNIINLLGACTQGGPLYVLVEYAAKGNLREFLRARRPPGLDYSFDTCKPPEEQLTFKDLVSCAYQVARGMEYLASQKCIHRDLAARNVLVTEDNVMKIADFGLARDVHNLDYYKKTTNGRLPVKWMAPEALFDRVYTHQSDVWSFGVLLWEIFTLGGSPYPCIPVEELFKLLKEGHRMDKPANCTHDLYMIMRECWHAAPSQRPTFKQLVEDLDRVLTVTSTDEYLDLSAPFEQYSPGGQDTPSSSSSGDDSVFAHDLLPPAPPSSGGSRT

Row | Structure (SMILES) | kinase still bound, per cent of control [1] [%] | kinase still bound, per cent of control [2] [%] | kinase still bound, per cent of control [3] [%] | kinase still bound, per cent of control [4] [%] | kinase still bound, per cent of control [5] [%] | kinase still bound, per cent of control [6] [%] | kinase still bound, per cent of control [7] [%] | kinase still bound, per cent of control [8] [%] | kinase still bound, per cent of control [9] [%] | kinase still bound, per cent of control [10] [%] | kinase still bound, per cent of control [11] [%] | kinase still bound, per cent of control [12] [%] | kinase still bound, per cent of control [13] [%] | kinase still bound, per cent of control [14] [%]
1 | C=CC(=O)Nc1cc(-n2c(=O)ccc3cnc4ccc(-c5cn[nH]c5)cc4c32)ccc1C | 91 | 26 | 100 | 41 | 74 | 1.2 | 36 | 14 | 6.4 | 80 | 20 | 4.6 | 15 | 79
2 | C=CC(=O)Nc1cc(NC(=O)c2ccc(C)c(NC(=O)c3ccno3)c2)cc(C(F)(F)F)c1 | 19 | 100 | 94 | 100 | 91 | 100 | 54 | 75 | 85 | 86 | 88 | 73 | 93 | 100
3 | CN(C)C/C=C/C(=O)Nc1ccc(C(=O)Nc2cccc(Nc3nccc(-c4cccnc4)n3)c2)cc1 | 63 | 100 | 83 | 99 | 84 | 18 | 64 | 51 | 76 | 100 | 100 | 100 | 100 | 84
4 | O=C1Nc2ccc(I)cc2/C1=C/c1cc(Br)c(O)c(Br)c1 | 0.1 | 36 | 80 | 32 | 76 | 13 | 93 | 99 | 9 | 80 | 84 | 97 | 76 | 100
5 | O=c1cc(N2CCOCC2)oc2c(-c3cccc4c3sc3ccccc34)cccc12 | 95 | 91 | 100 | 89 | 94 | 79 | 96 | 100 | 100 | 67 | 27 | 4.4 | 17 | 100
6 | O=C1NC(=O)/C(=C/c2ccc3nccc(-c4ccncc4)c3c2)S1 | 41 | 47 | 54 | 43 | 100 | 28 | 88 | 89 | 58 | 40 | 0.2 | 27 | 0 | 100
7 | Cc1ccc(NC(=O)c2cccc(C(C)(C)C#N)c2)cc1Nc1ccc2ncn(C)c(=O)c2c1 | 0 | 11 | 49 | 48 | 100 | 100 | 100 | 57 | 69 | 64 | 100 | 100 | 89 | 31
8 | O=C(NC1CC1)c1cccc(-c2ccc3c(NC(=O)C4CC4)n[nH]c3c2)c1 | 65 | 82 | 73 | 93 | 100 | 15 | 76 | 75 | 87 | 73 | 100 | 98 | 92 | 96
9 | COc1cc(N2CCN(C)CC2)ccc1Nc1nc(N)c(C(=O)c2c(Cl)cccc2Cl)s1 | 100 | 100 | 91 | 100 | 100 | 100 | 81 | 86 | 97 | 100 | 100 | 100 | 100 | 100
10 | O=C(Nc1cccc(Nc2ncc(Br)c(NCCc3cnc[nH]3)n2)c1)N1CCCC1 | 62 | 41 | 24 | 65 | 0.8 | 0.1 | 28 | 11 | 8.4 | 4.6 | 100 | 59 | 95 | 0.15
11 | C[C@@H](Oc1cc(-n2cnc3ccc(CN4CCN(C)CC4)cc32)sc1C(N)=O)c1ccccc1C(F)(F)F | 58 | 81 | 100 | 86 | 75 | 21 | 29 | 40 | 40 | 93 | 91 | 16 | 63 | 100
